Measurements: ChEMBL document CHEMBL1133093, “The PPARs: from orphan receptors to drug discovery” (J Med Chem, 2000)
Each block holds one compound with its values, some of them ahead of it.

What was measured:
[1] = molecular target: T1, Peroxisome proliferator-activated receptor delta (Homo sapiens, UniProt Q03181)
T1 sequence (Q03181 whole entry): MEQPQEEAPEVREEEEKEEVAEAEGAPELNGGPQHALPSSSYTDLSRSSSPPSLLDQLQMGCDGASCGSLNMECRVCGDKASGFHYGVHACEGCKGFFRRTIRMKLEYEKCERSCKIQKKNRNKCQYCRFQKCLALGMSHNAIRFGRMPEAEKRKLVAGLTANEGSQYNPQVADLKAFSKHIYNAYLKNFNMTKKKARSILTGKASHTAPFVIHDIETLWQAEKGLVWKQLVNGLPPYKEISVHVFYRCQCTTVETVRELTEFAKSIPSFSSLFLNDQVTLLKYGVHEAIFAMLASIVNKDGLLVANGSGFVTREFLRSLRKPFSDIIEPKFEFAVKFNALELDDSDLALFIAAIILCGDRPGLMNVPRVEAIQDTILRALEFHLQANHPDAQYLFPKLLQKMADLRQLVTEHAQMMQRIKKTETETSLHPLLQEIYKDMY

[2] = molecular target: T2, Peroxisome proliferator-activated receptor delta (Mus musculus, UniProt P35396); test: Agonist activity for murine PPAR delta receptor in transcriptional activation assay; format: functional
T2 sequence (P35396 whole entry): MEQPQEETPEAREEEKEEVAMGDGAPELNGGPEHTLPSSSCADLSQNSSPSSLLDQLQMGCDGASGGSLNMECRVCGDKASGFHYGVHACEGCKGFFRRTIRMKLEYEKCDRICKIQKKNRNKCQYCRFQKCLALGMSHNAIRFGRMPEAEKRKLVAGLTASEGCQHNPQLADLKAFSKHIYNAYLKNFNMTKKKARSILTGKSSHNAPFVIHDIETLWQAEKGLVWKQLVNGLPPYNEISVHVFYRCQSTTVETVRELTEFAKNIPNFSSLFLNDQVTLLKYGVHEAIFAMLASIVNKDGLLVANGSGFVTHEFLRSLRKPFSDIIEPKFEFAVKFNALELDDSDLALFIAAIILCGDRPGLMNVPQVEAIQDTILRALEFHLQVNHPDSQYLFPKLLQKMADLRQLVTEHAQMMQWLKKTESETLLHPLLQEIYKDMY

[3] = molecular target: T3, Peroxisome proliferator-activated receptor gamma (Mus musculus, UniProt P37238)
T3 sequence (P37238 whole entry): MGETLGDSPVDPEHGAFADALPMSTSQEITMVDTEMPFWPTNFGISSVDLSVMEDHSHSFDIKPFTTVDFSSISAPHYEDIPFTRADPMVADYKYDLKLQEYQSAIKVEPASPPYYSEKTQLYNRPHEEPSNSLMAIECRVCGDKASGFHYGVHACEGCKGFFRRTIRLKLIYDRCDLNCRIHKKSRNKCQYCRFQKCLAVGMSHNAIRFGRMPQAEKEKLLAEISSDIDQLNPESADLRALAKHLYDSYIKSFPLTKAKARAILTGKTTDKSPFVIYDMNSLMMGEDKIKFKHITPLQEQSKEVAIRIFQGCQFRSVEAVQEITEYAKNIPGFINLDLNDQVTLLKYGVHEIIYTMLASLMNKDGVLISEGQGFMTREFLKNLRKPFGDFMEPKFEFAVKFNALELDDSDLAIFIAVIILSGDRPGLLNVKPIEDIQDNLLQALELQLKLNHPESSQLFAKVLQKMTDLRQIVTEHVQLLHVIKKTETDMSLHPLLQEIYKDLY
Description: Agonist activity for murine PPAR gamma receptor in transcriptional activation assay

[4] = molecular target: T4, Peroxisome proliferator-activated receptor alpha (Mus musculus, UniProt P23204); test: Agonist activity for murine PPAR alpha receptor in transcriptional activation assay;IA means inactive at 10 uM; format: functional
T4 sequence (P23204 whole entry): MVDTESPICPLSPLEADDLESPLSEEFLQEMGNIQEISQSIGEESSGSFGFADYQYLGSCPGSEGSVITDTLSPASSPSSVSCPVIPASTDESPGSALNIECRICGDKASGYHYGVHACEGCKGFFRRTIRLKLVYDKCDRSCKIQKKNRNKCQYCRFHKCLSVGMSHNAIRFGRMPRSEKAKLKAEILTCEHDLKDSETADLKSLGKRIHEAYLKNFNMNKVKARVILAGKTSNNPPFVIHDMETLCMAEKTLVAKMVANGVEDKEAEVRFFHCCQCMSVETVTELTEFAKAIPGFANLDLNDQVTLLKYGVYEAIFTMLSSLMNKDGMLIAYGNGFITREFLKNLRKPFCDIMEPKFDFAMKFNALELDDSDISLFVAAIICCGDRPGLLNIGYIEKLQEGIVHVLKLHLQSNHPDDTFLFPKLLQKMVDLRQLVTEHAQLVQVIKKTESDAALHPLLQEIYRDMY

[5] = molecular target: T5, Peroxisome proliferator-activated receptor alpha (Homo sapiens, UniProt Q07869)
T5 sequence (Q07869 whole entry): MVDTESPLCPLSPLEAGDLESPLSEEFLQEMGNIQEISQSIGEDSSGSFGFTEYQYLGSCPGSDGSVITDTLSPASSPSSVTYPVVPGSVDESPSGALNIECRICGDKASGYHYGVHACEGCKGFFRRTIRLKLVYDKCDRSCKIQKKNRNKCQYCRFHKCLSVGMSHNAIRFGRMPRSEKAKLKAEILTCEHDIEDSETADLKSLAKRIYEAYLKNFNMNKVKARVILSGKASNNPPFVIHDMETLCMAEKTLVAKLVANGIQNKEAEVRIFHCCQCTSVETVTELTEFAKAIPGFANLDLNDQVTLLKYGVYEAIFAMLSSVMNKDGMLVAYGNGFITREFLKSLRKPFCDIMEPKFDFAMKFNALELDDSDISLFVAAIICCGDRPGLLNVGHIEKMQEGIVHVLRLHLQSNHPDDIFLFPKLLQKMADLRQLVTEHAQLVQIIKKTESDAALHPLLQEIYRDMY

[6] = molecular target: T6, Peroxisome proliferator-activated receptor gamma (Homo sapiens, UniProt P37231)
T6 sequence (P37231 whole entry): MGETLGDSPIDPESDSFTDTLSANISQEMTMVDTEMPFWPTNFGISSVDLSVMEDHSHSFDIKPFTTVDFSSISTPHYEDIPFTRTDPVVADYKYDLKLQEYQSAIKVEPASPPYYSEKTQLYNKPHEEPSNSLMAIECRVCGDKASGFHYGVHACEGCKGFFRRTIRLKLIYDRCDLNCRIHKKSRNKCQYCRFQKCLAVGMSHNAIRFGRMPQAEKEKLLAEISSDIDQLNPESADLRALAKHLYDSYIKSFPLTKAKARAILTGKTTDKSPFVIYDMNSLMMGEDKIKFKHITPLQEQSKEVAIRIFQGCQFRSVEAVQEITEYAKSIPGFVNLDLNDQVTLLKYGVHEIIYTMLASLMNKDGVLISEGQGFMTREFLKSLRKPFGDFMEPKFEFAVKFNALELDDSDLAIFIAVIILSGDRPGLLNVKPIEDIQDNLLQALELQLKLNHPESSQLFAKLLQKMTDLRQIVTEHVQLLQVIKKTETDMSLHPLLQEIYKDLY

[7] = molecular target: T4, Peroxisome proliferator-activated receptor alpha; format: functional
[8] = molecular target: T2, Peroxisome proliferator-activated receptor delta; test: Agonist activity for murine PPAR delta receptor in transcriptional activation assay; IA means inactive at 10 uM; format: functional
[9] = molecular target: T5, Peroxisome proliferator-activated receptor alpha; test: Agonist activity for Human PPAR alpha receptor in transcriptional activation assay; IA means inactive at 10 uM; format: functional
[10] = molecular target: T1, Peroxisome proliferator-activated receptor delta; test: Agonist activity for Human PPAR delta receptor in transcriptional activation assay; IA means inactive at 10 uM; format: functional
[11] = molecular target: T4, Peroxisome proliferator-activated receptor alpha; test: Agonist activity for murine PPAR alpha receptor in transcriptional activation assay; IA means inactive at 10 uM; format: functional
[12] = molecular target: T5, Peroxisome proliferator-activated receptor alpha; test: Agonist activity for Human PPAR alpha receptor in transcriptional activation assay;IA means inactive at 10 uM; format: functional
[13] = molecular target: T1, Peroxisome proliferator-activated receptor delta; remark: listed apart in the source
Description: Agonist activity for Human PPAR delta receptor in transcriptional activation assay;IA means inactive at 10 uM

[14] = molecular target: T2, Peroxisome proliferator-activated receptor delta
Description: Agonist activity for murine PPAR delta receptor in transcriptional activation assay;IA means inactive at 10 uM

[15] = molecular target: T1, Peroxisome proliferator-activated receptor delta; test: Agonist activity for Human PPAR delta receptor in transcriptional activation assay at 100 uM; IA means inactive; format: functional
[16] = molecular target: T6, Peroxisome proliferator-activated receptor gamma; test: Agonist activity for Human PPAR gamma receptor in transcriptional activation assay; format: functional
[17] = molecular target: T2, Peroxisome proliferator-activated receptor delta; remark: listed apart in the source
Description: Agonist activity for murine PPAR delta receptor in transcriptional activation assay at 100 uM; IA means inactive

[18] = molecular target: T1, Peroxisome proliferator-activated receptor delta; remark: listed apart in the source
[19] = molecular target: T2, Peroxisome proliferator-activated receptor delta; remark: listed apart in the source
[20] = molecular target: T5, Peroxisome proliferator-activated receptor alpha; remark: listed apart in the source

Structure (SMILES): CCCc1c(OCCCOc2ccc(OCC(=O)O)cc2)ccc(C(C)=O)c1O
EC50 [1]: 530 nM
EC50 [2]: 3800 nM
EC50 [3]: 10000 nM
EC50 [4]: Not Active
EC50 [5]: 10000 nM
EC50 [6]: 5500 nM

EC50 [1]: 9100 nM
EC50 [2]: 7200 nM
EC50 [7]: 10000 nM
Structure (SMILES): COc1ccc(CC2SC(=O)NC2=O)cc1C(=O)NCc1ccc(C(F)(F)F)cc1 (centres undefined)

EC50 [5]: 740 nM
EC50 [7]: 930 nM
Structure (SMILES): CCOC(Cc1ccc(OCCN(C)c2nc3ccccc3o2)cc1)C(=O)O (centres undefined)

Structure (SMILES): COc1ccc(CCc2c(-c3ccccc3)[nH]c3ccc(CC(=O)O)cc23)cc1
EC50 [8]: Not Active
EC50 [9]: Not Active
EC50 [3]: 140 nM
EC50 [10]: Not Active
EC50 [11]: Not Active

Structure (SMILES): CN(CCOc1ccc(C[C@H](Nc2ccccc2C(=O)c2ccccc2)C(=O)O)cc1)c1ccccn1
EC50 [12]: Not Active
EC50 [13]: Not Active
EC50 [3]: 13 nM
EC50 [4]: Not Active
EC50 [14]: Not Active

Structure (SMILES): CC(C)(Oc1ccc(CCCN(CCc2c(F)cccc2Cl)C(=O)Nc2cccc(Cl)c2Cl)cc1)C(=O)O
EC50 [2]: 410 nM
EC50 [3]: 1500 nM
EC50 [5]: 170 nM
EC50 [6]: 2500 nM
EC50 [7]: 270 nM

Structure (SMILES): CCOC(=O)C(C)(C)Oc1ccc(Cl)cc1 [CLOFIBRATE]
EC50 [15]: Not Active
EC50 [16]: 500000 nM
EC50 [5]: 55000 nM
EC50 [17]: Not Active
EC50 [7]: 50000 nM

Structure (SMILES): Cc1oc(-c2ccccc2)nc1CCOc1ccc(C[C@H](Nc2ccccc2C(=O)c2ccccc2)C(=O)O)cc1 [FARGLITAZAR]
EC50 [13]: Not Active
EC50 [4]: Not Active
EC50 [14]: Not Active

Structure (SMILES): CC(C)OC(=O)C(C)(C)Oc1ccc(C(=O)c2ccc(Cl)cc2)cc1 [FENOFIBRATE]
EC50 [15]: Not Active
EC50 [17]: Not Active

Structure (SMILES): COC(=O)c1ccccc1N[C@@H](Cc1ccc(OCCc2nc(-c3ccccc3)oc2C)cc1)C(=O)O [GW7845]
EC50 [13]: Not Active
EC50 [4]: Not Active
EC50 [14]: Not Active

Structure (SMILES): CCCc1c(OCCCSc2ccc(CC(=O)O)cc2Cl)ccc2c(-c3ccccc3)coc12 [L-796449]
EC50 [2]: 23 nM
EC50 [3]: 10 nM
EC50 [5]: 4.1 nM
EC50 [7]: 7600 nM

Structure (SMILES): CCc1ccc(CCOc2ccc(CC3SC(=O)NC3=O)cc2)nc1 (centres undefined) [PIOGLITAZONE]
EC50 [18]: Not Active
EC50 [19]: Not Active
EC50 [20]: Not Active
EC50 [11]: Not Active

EC50 [3]: 32000 nM
Structure (SMILES): Cc1cccc(Nc2cc(Cl)nc(SCC(=O)O)n2)c1C [PIRINIXIC ACID]

Structure (SMILES): Cc1oc(-c2ccccc2)nc1CCOc1ccc(CC2C(=O)NOC2=O)cc1 (centres undefined) [REGLITAZAR]
EC50 [13]: Not Active
EC50 [3]: 89 nM
EC50 [14]: Not Active
EC50 [5]: 1900 nM
EC50 [7]: 4300 nM

Structure (SMILES): CN(CCOc1ccc(CC2SC(=O)NC2=O)cc1)c1ccccn1 (centres undefined) [ROSIGLITAZONE]
EC50 [20]: Not Active
EC50 [11]: Not Active

Structure (SMILES): Cc1c(C)c2c(c(C)c1O)CCC(C)(COc1ccc(CC3SC(=O)NC3=O)cc1)O2 (centres undefined) [TROGLITAZONE]
EC50 [18]: Not Active
EC50 [19]: Not Active
EC50 [20]: Not Active
EC50 [11]: Not Active
